# Experimental data as given in patent US12590066B2, “Fused-heterocyclyl-carbonohydrazonoyl dicyanide compounds and use thereof” (KOREA INSTITUTE OF SCIENCE AND TECHNOLOGY, priority 2020, dated 2026).
# Columns and labels:
# tau protein = target: T1, tau protein (Homo sapiens, UniProt P10636); assay: Tau-BiFC cell model, inhibition of Forskolin-induced tau protein aggregation; assay type: cell-based; conditions: Forskolin 30 μM, 48 hours; for Tau BiFC in cells Response (% @10 μM): 10 μM compound, Forskolin-only group = 100% tau protein-aggregated state; for IC50: tau-BiFC cells
# T1 construct: BiFC fluorescent-protein fragments (type and halves not specified); expressed in transfected cells
# Procedure, shortened: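 Tau-BiFC cells co-treated 48 h with 30 μM forskolin and compounds (1, 3, 10 μM screen; 0.01–30 μM dose-response). BiFC fluorescence normalized to forskolin-only (100% aggregation) minus untreated gives aggregation inhibition and IC50; viability as Hoechst-stained nuclei count relative to forskolin-only.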
# CYP2C19 = target: T2, CYP2C19 (Homo sapiens, UniProt P33261); assay: Inhibitory effect on CYP coenzyme activity, human liver microsomes; assay type: in vitro ADME; conditions: 10 μM compound, human liver microsomes 0.25 mg/mL, substrate S-mephenytoin, 15 minutes
# T2 construct: human liver microsomes (0.25 mg/mL); from tissue; host or cells: human liver microsomes
# Description: (§1) The inhibitory effects of the compounds prepared according to Examples 1 to 57 on CYP coenzyme activity were identified. Specifically, human liver microsomes (0.25 mg/mL), a 0.1 M phosphate buffer solution (pH 7.4), a substrate drug cocktail of five types of drug metabolism enzymes (50 μM phenacetin, 10 μM diclofenac, 100 μM S-mephenytoin, 5 μM dextromethorphan, and 2.5 μM midazolam), and the compound at a concentration of 0 μM or 10 μM were mixed and pre-cultured at 37° C. for 5 minutes, and then further cultured at 37° C. for 15 minutes together with an NADPH generation system solution added thereto. Thereafter, the reaction was terminated by adding an acetonitrile solution containing an internal standard material (terfenadine) and centrifuged for 5 minutes (14,000 rpm, 4° C.), and then a supernatant was injected into an LC-MS/MS system for simultaneous analysis of metabolites of the substrate drugs to thereby evaluate the inhibitory effects on drug metabolism.
# (§2) Metabolites of each CYP coenzyme indicator drug generated through the reaction were analyzed using the Shimadzu Nexera XR system and TSQ Vantage (Thermo). In an HPLC column, Kinetex C18 (2.1 mm×100 mm, 2.6 μm, particle size; Phenomenex, USA) was used, and mobile phases were (A) distilled water containing 0.1% formic acid and (B) acetonitrile containing 0.1% formic acid, and a gradient program shown in Table 3 was applied thereto.
# (§3) The generated metabolites were quantified using a multiple reaction monitoring (MRM) quantification mode, and Xcalibur (version 1.6.1) was used for data analysis. In order to express inhibitory effects of the novel compound prepared according to the examples of the present invention on CYP coenzyme activity, CYP coenzyme activities (%) with respect to the control group not treated with the compound are shown in Table 4 below.
# CYP2C9 = target: T3, CYP2C9 (Homo sapiens, UniProt P11712); assay: as above; assay type: in vitro ADME; conditions: 10 μM compound, human liver microsomes 0.25 mg/mL, substrate diclofenac, 15 minutes
# T3 construct: human liver microsomes (0.25 mg/mL); from tissue; host or cells: human liver microsomes
# Description: as §1, §2, §3
# CYP2D6 = target: T4, CYP2D6 (Homo sapiens, UniProt P10635); assay: as above; assay type: in vitro ADME; conditions: 10 μM compound, human liver microsomes 0.25 mg/mL, substrate dextromethorphan, 15 minutes
# T4 construct: human liver microsomes (0.25 mg/mL); from tissue; host or cells: human liver microsomes
# Description: as §1, §2, §3
# CYP3A4 = target: T5, CYP3A4 (Homo sapiens, UniProt P08684); assay: as above; assay type: in vitro ADME; conditions: 10 μM compound, human liver microsomes 0.25 mg/mL, substrate midazolam, 15 minutes
# T5 construct: human liver microsomes (0.25 mg/mL); from tissue; host or cells: human liver microsomes
# Description: as §1, §2, §3
# [1] = Liver microsome stability; assay type: in vitro ADME; conditions: 1 μM compound, 37° C., 30 minutes, NADPH; for Dog (%) amount of substrate remaining after the reaction: dog liver microsomes 0.25 mg/mL; for Human (%) amount of substrate remaining after the reaction: human liver microsomes 0.25 mg/mL; for Mouse (%) amount of substrate remaining after the reaction: mouse liver microsomes 0.25 mg/mL; for Rat (%) amount of substrate remaining after the reaction: rat liver microsomes 0.25 mg/mL
# Description: The stability of liver microsomes due to the compounds prepared according to Examples 1 to 57 was confirmed. Specifically, four types of liver microsomes (human, dog, rat, and mouse, each 0.25 mg/mL), a 0.1 M phosphate buffer solution (pH 7.4), and each of the compounds at a concentration of 1 μM were mixed and pre-cultured at 37° C. for 5 minutes and further cultured at 37° C. for 30 minutes together with an NADPH generation system solution added thereto. Thereafter, the reaction was terminated by adding an acetonitrile solution containing an internal standard material (chloropropamide) and centrifuged for 5 minutes (14,000 rpm, 4° C.), and then a supernatant was injected into an LC-MS/MS system for analysis of substrate drugs to thereby evaluate metabolic stability due to 8 types of compounds.
# The amount of the substrate remaining after the reaction was analyzed using the Shimadzu Nexera XR system and TSQ Vantage (Thermo). In an HPLC column, Kinetex XB-C18 (2.1 mm×100 mm, particle size of 2.6 μm; Phenomenex, USA) was used, and mobile phases were (A) distilled water containing 0.1% formic acid and (B) acetonitrile containing 0.1% formic acid. Analyst software (version 1.6.3) and Xcalibur (version 1.6.1) were used for data analysis.
# T2 sequence (P33261 whole entry): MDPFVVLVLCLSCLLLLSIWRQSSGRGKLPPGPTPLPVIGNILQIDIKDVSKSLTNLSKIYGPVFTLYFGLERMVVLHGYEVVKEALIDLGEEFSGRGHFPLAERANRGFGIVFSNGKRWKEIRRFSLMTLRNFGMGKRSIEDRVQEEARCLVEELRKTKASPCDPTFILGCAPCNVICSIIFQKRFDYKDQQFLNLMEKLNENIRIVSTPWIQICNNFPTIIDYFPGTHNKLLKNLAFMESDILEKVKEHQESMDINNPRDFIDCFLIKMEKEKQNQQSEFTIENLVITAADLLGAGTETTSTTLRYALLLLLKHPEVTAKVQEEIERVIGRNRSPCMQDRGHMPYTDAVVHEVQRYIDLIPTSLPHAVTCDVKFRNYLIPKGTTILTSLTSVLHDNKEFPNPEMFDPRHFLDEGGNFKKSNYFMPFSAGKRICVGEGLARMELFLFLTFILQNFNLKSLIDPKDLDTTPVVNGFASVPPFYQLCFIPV
# T3 sequence (P11712 whole entry): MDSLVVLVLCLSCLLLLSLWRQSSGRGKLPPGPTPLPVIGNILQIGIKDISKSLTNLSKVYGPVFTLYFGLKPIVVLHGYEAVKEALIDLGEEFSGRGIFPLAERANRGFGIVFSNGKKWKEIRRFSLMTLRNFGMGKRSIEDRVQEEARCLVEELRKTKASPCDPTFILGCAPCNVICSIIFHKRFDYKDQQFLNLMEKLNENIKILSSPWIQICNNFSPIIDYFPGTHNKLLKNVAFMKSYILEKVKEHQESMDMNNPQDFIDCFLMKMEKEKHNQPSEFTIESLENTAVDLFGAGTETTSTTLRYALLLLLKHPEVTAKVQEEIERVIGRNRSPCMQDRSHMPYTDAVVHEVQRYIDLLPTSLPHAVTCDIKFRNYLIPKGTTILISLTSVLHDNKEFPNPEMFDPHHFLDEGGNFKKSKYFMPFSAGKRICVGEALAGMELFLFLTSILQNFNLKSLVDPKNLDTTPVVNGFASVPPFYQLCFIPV
# T4 sequence (P10635 whole entry): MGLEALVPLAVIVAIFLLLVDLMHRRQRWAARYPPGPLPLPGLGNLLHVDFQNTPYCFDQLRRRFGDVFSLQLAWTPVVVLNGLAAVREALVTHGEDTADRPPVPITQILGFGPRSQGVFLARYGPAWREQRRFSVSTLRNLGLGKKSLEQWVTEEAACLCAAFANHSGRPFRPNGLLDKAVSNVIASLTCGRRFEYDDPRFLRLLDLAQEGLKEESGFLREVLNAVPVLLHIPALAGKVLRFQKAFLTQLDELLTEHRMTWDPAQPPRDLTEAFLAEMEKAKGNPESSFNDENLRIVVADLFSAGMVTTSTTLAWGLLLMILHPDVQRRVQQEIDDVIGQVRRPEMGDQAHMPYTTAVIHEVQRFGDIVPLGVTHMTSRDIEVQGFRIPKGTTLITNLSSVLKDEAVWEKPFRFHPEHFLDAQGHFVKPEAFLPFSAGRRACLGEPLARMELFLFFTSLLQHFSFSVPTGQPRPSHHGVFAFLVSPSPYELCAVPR
# T5 sequence (P08684 whole entry): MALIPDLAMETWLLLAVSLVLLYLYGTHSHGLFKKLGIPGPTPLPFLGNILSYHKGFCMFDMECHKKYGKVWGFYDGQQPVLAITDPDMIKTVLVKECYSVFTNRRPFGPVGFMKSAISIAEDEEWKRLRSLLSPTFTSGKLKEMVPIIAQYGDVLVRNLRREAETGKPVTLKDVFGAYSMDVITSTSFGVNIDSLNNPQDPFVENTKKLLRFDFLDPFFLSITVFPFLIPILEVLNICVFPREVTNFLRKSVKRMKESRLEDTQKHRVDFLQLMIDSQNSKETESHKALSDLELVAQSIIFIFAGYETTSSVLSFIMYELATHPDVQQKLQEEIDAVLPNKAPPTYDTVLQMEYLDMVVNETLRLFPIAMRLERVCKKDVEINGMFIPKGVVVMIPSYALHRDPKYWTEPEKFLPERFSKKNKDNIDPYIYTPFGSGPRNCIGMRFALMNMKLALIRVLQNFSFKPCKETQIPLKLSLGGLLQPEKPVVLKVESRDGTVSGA
# T1 sequence (P10636 1-441 isoform P10636-8): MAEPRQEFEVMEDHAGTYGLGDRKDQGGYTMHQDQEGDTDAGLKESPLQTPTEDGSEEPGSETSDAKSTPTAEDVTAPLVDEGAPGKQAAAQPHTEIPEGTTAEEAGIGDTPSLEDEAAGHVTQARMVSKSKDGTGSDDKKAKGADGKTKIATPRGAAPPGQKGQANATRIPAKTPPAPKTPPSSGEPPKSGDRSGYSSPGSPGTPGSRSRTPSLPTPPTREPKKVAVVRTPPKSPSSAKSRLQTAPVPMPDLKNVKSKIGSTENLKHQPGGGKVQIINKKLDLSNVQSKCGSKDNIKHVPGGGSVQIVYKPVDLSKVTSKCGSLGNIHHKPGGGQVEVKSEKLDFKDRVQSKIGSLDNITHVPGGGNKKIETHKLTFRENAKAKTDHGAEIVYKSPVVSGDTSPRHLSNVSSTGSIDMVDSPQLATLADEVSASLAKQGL
Structure (SMILES),Tau BiFC in cells Response (% @10 μM) (tau protein) [%],IC50 (tau protein) [nM],CYP2C19 coenzyme activity (%) with respect to control group not treated (CYP2C19) [%],CYP2C9 coenzyme activity (%) with respect to control group not treated (CYP2C9) [%],CYP2D6 coenzyme activity (%) with respect to control group not treated (CYP2D6) [%],CYP3A4 coenzyme activity (%) with respect to control group not treated (CYP3A4) [%],Dog (%) amount of substrate remaining after the reaction [1] [%],Human (%) amount of substrate remaining after the reaction [1] [%],Mouse (%) amount of substrate remaining after the reaction [1] [%],Rat (%) amount of substrate remaining after the reaction [1] [%]
"Cn1c(=O)n(C)c2ncc(NN=C(C#N)C#N)cc21 [Compound 12, (1,3-dimethyl-2-oxo-2,3-dihydro-1H-imidazo[4,5-b]pyridin-6-yl)carbonohydrazonoyl dicyanide]",0,870,92.2,93.4,>100,>100,>100,>100,>100,94.9
"N#CC(C#N)=NNc1ccc2[nH]c(=O)sc2c1 [Compound 13, (2-oxo-2,3-dihydrobenzo[d]thiazol-6-yl)carbonohydrazonoyl dicyanide]",0.8,200,55.2,23.3,99.4,92.7,>100,>100,>100,>100
"Cn1c(=O)sc2cc(NN=C(C#N)C#N)ccc21 [Compound 14, (3-methyl-2-oxo-2,3-dihydrobenzo[d]thiazol-6-yl)carbonohydrazonoyl dicyanide]",0,60,68.8,19.5,85.6,91.2,73.3,98.3,59.6,87.1
"N#CC(C#N)=NNc1ccc2[nH]c(=O)oc2c1 [Compound 15, (2-oxo-2,3-dihydrobenzo[d]oxazol-6-yl)carbonohydrazonoyl dicyanide]",5.5,8400,90.3,59.4,>100,98.3,97.1,74.2,>100,92.5
"Cn1c(=O)oc2cc(NN=C(C#N)C#N)ccc21 [Compound 16, (3-methyl-2-oxo-2,3-dihydrobenzo[d]oxazol-6-yl)carbonohydrazonoyl dicyanide]",0,600,90.8,54.9,>100,99.8,95.7,98.9,81,89.1
"Cn1c(=O)[nH]c2cc(NN=C(C#N)C#N)ccc21 [Compound 17, (1-methyl-2-oxo-2,3-dihydro-1H-benzo[d]imidazol-5-yl)carbonohydrazonoyl dicyanide]",0,1200,80.4,81.2,87.1,89,>100,>100,95.7,>100
"CC(C)n1c(=O)sc2cc(NN=C(C#N)C#N)ccc21 [Compound 18, (3-isopropyl-2-oxo-2,3-dihydrobenzo[d]thiazol-6-yl)carbonohydrazonoyl dicyanide]",0,40,63.2,7.5,88.1,78.3,93.8,85.1,71.3,70.8
"N#CC(C#N)=NNc1ccc2c(c1)sc(=O)n2C(F)F [Compound 19, (3-(difluoromethyl)-2-oxo-2,3-dihydrobenzo[d]thiazol-6-yl)carbonohydrazonoyl dicyanide]",0,100,75.7,23.3,40.5,81.8,80.4,99.7,58.7,69.7
"CC(C)n1c(=O)oc2cc(NN=C(C#N)C#N)ccc21 [Compound 20, (3-isopropyl-2-oxo-2,3-dihydrobenzo[d]oxazol-6-yl)carbonohydrazonoyl dicyanide]",0,100,85.7,32.3,98.1,98.8,95.6,98.1,73.1,73.3
"N#CC(C#N)=NNc1ccc2c(c1)oc(=O)n2C(F)F [Compound 21, (3-(difluoromethyl)-2-oxo-2,3-dihydrobenzo[d]oxazol-6-yl)carbonohydrazonoyl dicyanide]",0,600,83.7,64.4,89.1,90.4,72.1,73.9,71.8,79.8
